Measurements reported in patent US8877748B2, “Heterocyclic fused anthraquinone derivatives, manufacturing method and pharmaceutical composition using thereof” (National Defense Medical Center, priority 2012, dated 2014).

These compounds were tested on PC-3 prostate cancer cell line (assay: SRB assay cell viability, PC-3 prostate cancer cell line). Details: Homo sapiens, PC-3 prostate cancer cell line, Table II prints no unit, μM printed, read-out: SRB assay: 50% inhibition of cancer cell proliferation of sample concentration (IC50) of PC-3 prostate cancer cell line.
Type: cell-based, human

Compound	IC50
O=C1c2ccccc2C(=O)c2c1cc(O)c1nsnc21 [C4, Potassium 6,11-dioxo-6,11-dihydroanthra[2,1-c][1,2,5]thiadiazol-4-olate]	18.5 µM
CCCNc1cc2c(c3nsnc13)C(=O)c1ccccc1C2=O [C6, 4-(propylamino)anthra-[2,1-c][1,2,5] thiadiazol-6,11-dione]	3.25 µM
CCN1CCN(c2cc3c(c4nsnc24)C(=O)c2ccccc2C3=O)CC1 [C9, 4-(4-ethyl-piperazin-1-yl)anthra[2,1-c] [1,2,5]thiadiazol-6,11-dione]	9.43 µM
O=C1c2ccccc2C(=O)c2c1cc(N1CCCCC1)c1nsnc21 [C11, 4-(piperidine-1-yl)anthra[2,1-c][1,2,5] thiadiazol-6,11-dione]	1.38 µM
CCCCNc1cc2c(c3nsnc13)C(=O)c1ccccc1C2=O [C12, 4-butylamino-anthra[2,1-c][1,2,5] thiadiazol-6,11-dione]	1.76 µM
CCNc1cc2c(c3nsnc13)C(=O)c1ccccc1C2=O [C13, 4-ethylamino anthra[2,1-c][1,2,5] thiadiazol-6,11-dione]	2.97 µM
CCCSc1cc2c(c3nsnc13)C(=O)c1ccccc1C2=O [C17, 4-(n-propylthio)-anthra[2,1-c][1,2,5] thiadiazol-6,11-dione]	3.69 µM
COc1ccccc1Sc1cc2c(c3nsnc13)C(=O)c1ccccc1C2=O [C23, 4-(2-methoxy-phenyl-thio)anthra[2,1-c] [1,2,5]thiadiazol-6,11-dione]	> 15 µM
O=C1c2ccccc2C(=O)c2c1cc(Sc1ccc(Br)cc1)c1nsnc21 [C24, 4-(4-bromo-phenyl-thio)anthra[2,1-c] [1,2,5]thiadiazol-6,11-dione]	> 15 µM
CC(C)c1ccc(Sc2cc3c(c4nsnc24)C(=O)c2ccccc2C3=O)cc1 [C26, 4-(4-isopropyl-phenyl-thio)anthra[2,1-c] [1,2,5]thiadiazol-6,11-dione]	> 15 µM
O=C1c2ccccc2C(=O)c2c1cc(Sc1ccc(F)cc1)c1nsnc21 [C28, 4-(4-fluoro-phenyl-thio)anthra[2,1-c] [1,2,5]thiadiazol-6,11-dione]	6.7 µM
O=C1c2ccccc2C(=O)c2c1cc(Sc1ccccc1Cl)c1nsnc21 [C32, 4-(2-chloro-phenylthio)anthra[2,1-c] [1,2,5]thiadiazol-6,11-dione]	> 15 µM
O=C1c2ccccc2C(=O)c2c1cc(Sc1cc(Cl)c(Cl)cc1Cl)c1nsnc21 [C34, 4-(2,4,5-trichloro-phenylthio)anthra[2,1-C] [1,2,5]thiadiazol-6,11-dione]	> 15 µM
O=C1c2ccccc2C(=O)c2c1cc(Sc1cccc(F)c1)c1nsnc21 [C38, 4-(3-fluorophenylthio)anthra[2,1-c][1,2,5] thiadiazol-6,11-dione]	8.82 µM

The next lines start with the values.

IC50	Compound
12.4 µM	O=C1c2ccccc2C(=O)c2c1cc(Sc1cccc(Br)c1)c1nsnc21 [C40, 4-(3-bromophenylthio)anthra[2,1-c][1,2,5] thiadiazol-6,11-dione]
> 15 µM	Cc1ccc(Sc2cc3c(c4nsnc24)C(=O)c2ccccc2C3=O)cc1 [C44, 4-(4-methyl-phenyl-thio)anthra[2,1-c] [1,2,5]thiadiazol-6,11-dione]
> 15 µM	Cc1cc(C)cc(Sc2cc3c(c4nsnc24)C(=O)c2ccccc2C3=O)c1 [C49, 4-(3,5-dimethyl-phenyl-thio)anthra[2,1-c] [1,2,5]thiadiazol-6,11-dione]
> 15 µM	CCc1ccccc1Sc1cc2c(c3nsnc13)C(=O)c1ccccc1C2=O [C51, 4-(2-ethyl-phenylthio)anthra[2,1-c][1,2,5] thiadiazol-6,11-dione]
> 15 µM	CC(C)c1ccccc1Sc1cc2c(c3nsnc13)C(=O)c1ccccc1C2=O [C52, 4-(2-isopropyl-phenyl-thio)anthra[2,1-c] [1,2,5]thiadiazol-6,11-dione]
5.84 µM	O=C1c2ccccc2C(=O)c2c1cc(SCc1ccccc1Cl)c1nsnc21 [C53, 4-(2-chloro-benzylthio)anthra[2,1-C] [1,2,5]thiadiazol-6,11-dione]
0.29 µM	Cc1cccc(Nc2cc3c(c4nsnc24)C(=O)c2ccccc2C3=O)c1 [C62, 4-(m-tolylamino)anthra[2,1-c][1,2,5] thiadiazol-6,11-dione]
2.28 µM	O=C1c2ccccc2C(=O)c2c1cc(Nc1cccc(Cl)c1)c1nsnc21 [C63, 4-(3-chloro-phenylamino)anthra[2,1-c] [1,2,5]thiadiazol-6,11-dione]

Same assay, conditions: Homo sapiens, PC-3 prostate cancer cells, read-out: IC50 in PC-3 prostate cancer cells (cell viability analysis)

IC50	Compound
> 15 µM	O=C1c2ccccc2C(=O)c2c1cc(Sc1ccccc1Cl)c1nsnc21 [C32, 4-(2-chloro-phenylthio)anthra[2,1-c] [1,2,5]thiadiazol-6,11-dione]

Same assay, conditions: PC-3 prostate cancer cell line, Table II prints no unit, μM printed, read-out: SRB assay: 50% inhibition of cancer cell proliferation of sample concentration (IC50) of PC-3 prostate cancer cell line

Compound	IC50
4-(2-fluoro-phenyl thio)anthra[2,1-c] [1,2,5]thiadiazol oxazole-6,11-dione [C33]	> 15 µM
4-(2-mercapto-phenyl-thio)anthra[2,1-c] [1,2,5]thiadiazol oxazole-6,11-dione [C36]	> 15 µM
4-(4-ethyl-phenyl-thio)anthra[2,1-c][1,2,5] thiadiazol oxazole-6,11-dione [C54]	7.5 µM
4-(4-nitrophenyl thio)anthra[2,1-c][1,2,5] thiadiazol oxazole-6,11-dione [C45]	8.38 µM
O=C1c2ccccc2C(=O)c2c1cc(Sc1cccc(Cl)c1Cl)c1nsnc21 [C30, 4-(2,3-dichloro-phenylthio)anthra[2,1-c] [1,2,5]thiadiazol oxazole-6,11-dione]	11 µM
CC(C)(C)c1ccc(Sc2cc3c(c4nsnc24)C(=O)c2ccccc2C3=O)cc1 [C31, 4-(4-tert-butyl-alkylphenyl-thio)anthra [2,1-c][1,2,5]thiadiazol-6,11-dione]	> 15 µM
Cc1cccc(Sc2cc3c(c4nsnc24)C(=O)c2ccccc2C3=O)c1 [C47, 4-(m-phenylmethylthio)anthra[2,1-c] [1,2,5]thiadiazol-6,11-dione]	> 15 µM

Same assay, conditions: PC-3 prostate cancer cells, read-out: IC50 in PC-3 prostate cancer cells (cell viability analysis)

Compound	IC50
4-(2-fluoro-phenyl thio)anthra[2,1-c] [1,2,5]thiadiazol oxazole-6,11-dione [C33]	5.48 µM
4-(phenethylthiol)anthra[2,1-c][1,2,5] thiadiazol-6,11-dione [C29]	19 µM
